From patent US12679843B2, “Pyrrolopyrimidine amines as complement inhibitors” (BioCryst Pharmaceuticals, Inc., priority 2020, dated 2026)

Biological target: Factor D (Homo sapiens, UniProt P00746)
Test: Factor D esterolytic assay (Z-Lys-SBzl thioester substrate, DTNB, 405 nm)
Format: biochemical
Settings: substrate Z-Lys-SBzl 1.29 mM, 100 mM HEPES, 500 mM NaCl, pH 7.5, 10% DMSO, tested a minimum of three times
Outline: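 Run in pH 7.5 HEPES (100 mM) with 500 mM NaCl and 10% DMSO, with compound preincubated at room temperature or not before adding 1.29 mM Z-Lys-SBzl. Free thiol released by Factor D reacts with DTNB, and rate is followed at 405 nm minus 690 nm over 600 s. IC50 derives from rate-based inhibition, minimum three replicates.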

Sequence of Factor D (P00746 26-253): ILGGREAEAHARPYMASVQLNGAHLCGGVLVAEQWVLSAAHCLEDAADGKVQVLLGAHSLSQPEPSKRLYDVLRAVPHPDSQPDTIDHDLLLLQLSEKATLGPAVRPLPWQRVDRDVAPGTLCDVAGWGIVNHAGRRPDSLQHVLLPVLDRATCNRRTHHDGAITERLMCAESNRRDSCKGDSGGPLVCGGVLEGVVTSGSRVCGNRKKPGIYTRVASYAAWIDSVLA

| Structure (SMILES) | IC50 |
| --- | --- |
| Cc1cc(Br)cc2c3c(N)ncnc3n(CC(=O)N3[C@@H]4C[C@@H]4C[C@H]3C(=O)Nc3cccc(Br)n3)c12 [Compound 192g, (1R,3S,5R)-2-(2-(4-amino-6-bromo-8-methyl-9H-pyrimido[4,5-b]indol-9-yl)acetyl)-N-(6-bromopyridin-2-yl)-2-azabicyclo[3.1.0]hexane-3-carboxamide] | < 100 nM |
| Nc1ncnc2c1cc1n2C(C(=O)N2[C@@H](C(=O)Nc3cccc(Br)n3)C[C@@H]3C[C@@H]32)Oc2ccccc2-1 (stereo partly drawn) [Compound 233h, (1S,3R,5S)-2-(11-amino-6H-benzo[e]pyrimido[5′,4′:4,5]pyrrolo[1,2-c][,3]oxazine-6-carbonyl)-N-(6-bromopyridin-2-yl)-2-azabicyclo[3.1.0]hexane-3-carboxamide] | < 100 nM |
| CC(=O)Nc1ccc2c(c1)c1c(N)ncnc1n2CC(=O)N1[C@@H]2C[C@@H]2C[C@H]1C(=O)Nc1cccc(Br)n1 [Compound 168g, (1R,3S,5R)-2-(2-(6-acetamido-4-amino-9H-pyrimido[4,5-b]indol-9-yl)acetyl)-N-(6-bromopyridin-2-yl)-2-azabicyclo[3.1.0]hexane-3-carboxamide] | < 100 nM |
| Cc1ccc(Br)nc1NC(=O)[C@@H]1C[C@H]2C[C@H]2N1C(=O)Cn1c2ccccc2c2c(N)ncnc21 [Compound 1e, (1R,3S,5R)-2-(2-(4-amino-9H-pyrimido[4,5-b]indol-9-yl)acetyl)-N-(6-bromo-3-methylpyridin-2-yl)-2-azabicyclo[3.1.0]hexane-3-carboxamide] | < 100 nM |
| Cc1cc(-c2ccoc2)cc2c3c(N)ncnc3n(CC(=O)N3[C@H](C(=O)Nc4cccc(Br)n4)C[C@@]4(C)C[C@@H]34)c12 [Compound 353a, (1R,3S,5R)-2-(2-(4-amino-6-(furan-3-yl)-8-methyl-9H-pyrimido[4,5-b]indol-9-yl)acetyl)-N-(6-bromopyridin-2-yl)-5-methyl-2-azabicyclo[3.1.0]hexane-3-carboxamide] | < 100 nM |
| C[C@@]1(F)C[C@@H](C(=O)NCc2cccc(Cl)c2F)N(C(=O)Cn2cnc3c(N)ncnc32)C1 [Compound 122c, (2S,4R)-1-(2-(6-amino-9H-purin-9-yl)acetyl)-N-(3-chloro-2-fluorobenzyl)-4-fluoro-4-methylpyrrolidine-2-carboxamide] | 100 to 1000 nM |
| Cc1nc(C(F)(F)F)cc2c3c(N)ncnc3n(CC(=O)N3[C@H](C(=O)Nc4cccc(Br)n4)C[C@@]4(C)C[C@@H]34)c12 [Compound 347a, (1R,3S,5R)-2-(2-(4-amino-8-methyl-6-(trifluoromethyl)-9H-pyrido[4′,3′:4,5]pyrrolo[2,3-d]pyrimidin-9-yl)acetyl)-N-(6-bromopyridin-2-yl)-5-methyl-2-azabicyclo[3.1.0]hexane-3-carboxamide] | < 100 nM |
| C[C@@]12C[C@@H](C(=O)Nc3cccc(Br)n3)N(C(=O)Cn3c4ccc(-c5ccccc5)cc4c4c(N)ncnc43)[C@@H]1C2 [Compound 270a, (1R,3S,5R)-2-(2-(4-amino-6-phenyl-9H-pyrimido[4,5-b]indol-9-yl)acetyl)-N-(6-bromopyridin-2-yl)-5-methyl-2-azabicyclo[3.1.0]hexane-3-carboxamide] | < 100 nM |
| C[C@@]12C[C@@H](C(=O)Nc3cncc(Br)n3)N(C(=O)Cn3c4ccc(C(F)(F)F)cc4c4c(N)ncnc43)[C@@H]1C2 [Compound 261d, (1R,3S,5R)-2-(2-(4-amino-6-(trifluoromethyl)-9H-pyrimido[4,5-b]indol-9-yl)acetyl)-N-(6-bromopyrazin-2-yl)-5-methyl-2-azabicyclo[3.1.0]hexane-3-carboxamide] | < 100 nM |
| Cc1cccc2c3c(N)ncnc3n(CC(=O)N3[C@H](C(=O)Nc4cccc(Br)n4)C[C@@]4(C)C[C@@H]34)c12 [Compound 55a, (1R,3S,5R)-2-(2-(4-amino-8-methyl-9H-pyrimido[4,5-b]indol-9-yl)acetyl)-N-(6-bromopyridin-2-yl)-5-methyl-2-azabicyclo[3.1.0]hexane-3-carboxamide] | < 100 nM |
